Laboratory results reported in US20120214784A1, “SPIROPIPERIDINE COMPOUNDS AS ORL-1 RECEPTOR ANTAGONISTS” (ELI LILLY AND COMPANY, priority 2009, published 2012).

What was measured:
[1] = test system: wild type and ORL knockout mice; test: Blockade of fasting-induced hyperphagia in mice; type: in vivo, mouse
From the text: Blockade of fasting-induced hyperphagia in rats is an accepted model for hyperphagic eating disorders. […] Mice are individually housed a minimum of 3 days prior to the onset of testing to eliminate any effects of stress due to the change from group to individual housing. Three mice/genotype are randomly assigned to each treatment group on the test day. Pre-fast body weight measurements are taken, and food is then removed from cages overnight. Mice are fasted for approximately 15 hr. The next morning, the mice are given one of three doses of drug or vehicle via oral gavage 30 min. prior to gaining access to food. Drugs are dissolved in 20% Captisol dissolved in 25 mM phosphate buffer, pH 2.0. Measurements of body weight are taken immediately prior to drug treatment or 24 hr. after access to food is restored. […] Measurements of food intake are recorded 1 hr following access to food, as indicated, by weight of food remaining at 1 hr. It should be noted that food intake measured is during the light phase, a time during which mice are typically at rest and not normally eating. Following initial testing, mice are rested for 1 week with access to unlimited chow.

Kappa Opioid = Kappa Opioid (Homo sapiens, UniProt P41145); test: Radioligand binding selectivity; conditions: Kappa Opioid; read-out: Ki
Description: (§1) Radioligand binding assays are commonly used to determine the affinity (Ki) or potency of a compound to bind to a particular receptor or target protein. A filtration-based [3H]-OFQ/nociceptin receptor binding assay is developed based on previous assay formats (Ardati A, Henningsen R A, Higelin J, Reinscheid R K, Civelli O, Monsma F J Jr. Mol. Pharmacol. 1997 May; 51(5):816-24.) with minor modifications. [3H]-OFQ/nociceptin binding assays are carried out in deep-well 96-well plates. [^3H]OFQ (final assay concentration 0.2 nM) competition studies are carried out with 5-10 μg of membrane protein (isolated from Chinese hamster ovary cells (CHO cells) expressing cloned human ORL1 receptors) in a final assay volume of 0.5 mL of buffer containing 20 mM HEPES, pH 7.4, 5 mM MgCl2, 1 mM EGTA, 100 mM NaCl, 0.1% bovine serum albumin. Samples are incubated for 60 min. at room temperature, which is found to be optimal for competition assays. The assays are terminated by filtration through glass fiber filters (Wallac filtermat A) [pretreated with 0.3% polyethylenimine (Sigma) for 1 hr] on a Tometc cell harvester, and the filters are washed three times with 5 mL of ice-cold 50 mM Tris.HCl, pH 7.4. Filtermats are then dried and imbedded with Meltilex scintillant A and the radioactivity counted in a Wallac Microbeta scintillation counter. Specific binding is determined by displacement with 100 nM unlabeled nociceptin. Curves are plotted as the percent of specific binding and IC50 values are determined using a sigmoidal dose response curve with variable slope. K, values are calculated from the IC50 by the equation of Cheng and Prusoff (Cheng, Y. C., and Prusoff, W. H., Biochem. Pharmacol. 22, 3099-3108 (1973)) where Ki=IC50×(1+D×Kd^−1)^−1. Similarly, Ki for the mu, kappa and delta opioids, serotonin, adrenergic, and muscarinic receptors may be determined using membranes expressing the desired receptor and appropriate corresponding radioligand competitor molecules.

Mu Opioid = Mu Opioid (Homo sapiens, UniProt P35372); test: Radioligand binding selectivity; conditions: Mu Opioid; read-out: Ki
Description: as §1

Delta Opioid = Delta Opioid (Homo sapiens, UniProt P41143); test: Radioligand binding selectivity; conditions: Delta Opioid; read-out: Ki
Description: as §1

[2] = biological target: T1, nociceptin/ORL1 receptors (Rattus norvegicus, UniProt P35370); test: In vivo receptor occupancy (LC/MS/MS, RO Tracer) in hypothalamus; conditions: for receptor occupancy at 3 mg/kg: oral 3 mg/kg dose after 6 hr.
T1 construct: rats are sacrificed by cervical dislocation and the hypothalamus is removed; from tissue; host or cells: rat hypothalamus (in vivo occupancy)

[3] = biological target: human ERG (hERG) K+ channel (Homo sapiens, UniProt Q12809); test: hERG channel [3H]astemizole binding assay
Description: Blockade of K^+-channel conductance in the heart is associated with cardiotoxicity in the form of QT-wave prolongation. The affinity (Ki) of the exemplified nociceptin receptor antagonists for the human ERG (hERG) K^+ channel is determined in HEK293 cells expressing cloned hERG using the hERG channel antagonist radioligand [3H]astemizole (2 nM final assay concentration) according to well known procedures (see for example Finlayson K, et al. (Eur J Pharmacol. 412(3):203-12, 2001) [3H]Astemizole binding assays are performed at the contract research company Cerep (Paris France) according to standard procedures.

[4] = biological target: T2, cloned human ORL1/nociceptin receptors (Homo sapiens, UniProt P41146); test: Functional blockade of agonist-mediated G-protein activation, GTP-γ-[35S] binding; type: biochemical
T2 construct: expressed in transfected cells
From the text: Agonist-mediated stimulation of G-protein coupled receptors results in the activation of membrane associated Gαβγ-protein heterotrimer complexes, and represents the first step in the transduction of extracellular signals to modification of intracellular pathways. The first step in activation of receptor-mediated activation of Gαβγ-proteins heterotrimer is the exchange of Gα subunit bound guanosine diphoshpate (GDP) for guanosine triphosphate (GTP). The binding of GTP to the Gα subunit causes dissociation of the heterotrimer subunits, Gβ and Gγ, resulting in the modulation of several intracellular signaling cascades. Measurement of receptor-mediated G-protein activation can be measured using the non-hydrolyzable radiolabeled analog of GTP, GTP-γ-[35S]. Utilizing this methodology, antagonist affinity (Kb) is measured in membranes expressing cloned human ORL1/nociceptin receptors using a GTP-γ-[35S] binding assay according to previously described protocols with minor modifications (DeLapp et al., J Pharmacol Exp Ther. 1999 May; 289(2):946-55; Ozaki et al., Eur J Pharmacol. 2000 Aug. 18; 402(1-2):45-53). Assays are conducted in a 200-μl volume with the following buffer composition: 100 mM NaCl, 20 mM HEPES, 5 mM MgCl2, 1 mM EDTA, 0.1% BSA, 3 μM GDP, 0.5 nM [^35S]GTPγS. ORL1 receptor membrane suspension is added at a concentration of 20 μg protein per well and receptor stimulation is achieved using 300 nM nociceptin/OFQ. Wheat germ agglutinin coated SPA beads (Amersham, Arlington Hts., Ill.) are added at 1 mg per well to detect membrane-bound [^35S]GTPγS. Plates are sealed and incubated for 2 hr. at room temperature. Plates are then placed at 4° C. overnight to allow the SPA beads to settle and then counted in a Wallac Microbeta. Specific [^35S]GTPγS binding is determined as the difference in CPM observed in the absence and presence of 10 μM unlabeled GTPγS. Data are plotted as the percent of specific [^35S]GTPγS bound. Curves are plotted as the percent of specific binding and IC50 values are determined using a sigmoidal dose response curve with variable slope. Antagonist affinity (Kb) is estimated according to DeLapp et al., 1999 using a modification of the equation of Cheng and Prusoff (1973) where Kb=IC50×(1+D×EC50^−1)^−1.

[5] = biological target: T3, cloned human ORL1 receptors (Homo sapiens, UniProt P41146); test: [3H]-OFQ/nociceptin receptor binding assay
T3 construct: expressed in transfected cells; host or cells: CHO cells (membranes)
Description: as §1

[6] = test system: NIH-Swiss mice; 129S6 wild type and nociceptin/ORL1 receptor knockout mice; test: Forced-swim test in mice (mFST); type: in vivo, mouse
From the text: Forced-Swim Test in Mice (mFST) mFST is an established in vivo assay for antidepressant activity (Li et al. J Pharmacol Exp Ther. 319(1):254-9, 2006.). […] The mFST was used to evaluate potential antidepressant-like activity of novel nociceptin/ORL1 antagonists according to previously published methods (Li et al. J Pharmacol Exp Ther. 319(1):254-9, 2006.). Briefly, male NIH-Swiss mice (Harlan Sprague-Dawley, Indianapolis, Ind.) weighing between 25-30 g are used. Group housed animals are removed from the vivarium to the testing area in their own cages and allowed to adapt to the new environment for at least 1 hour before testing. Alternatively, male 129S6 wild type and nociceptin/ORL1 receptor knockout mice were used to confirm dependence of the response to compound was nociceptin/ORL1 receptor dependent. All compounds are prepared in 20% Captisol, 25 mM phosphate buffer, pH 2.0 on the day of use. Mice are placed in a cylinder (diameter: 10 cm; height: 25 cm) filled with 6 cm of water (22-25° C.) for 6 min. The duration of immobility during the last 4 min. of the 6 min. period of the test was scored. A mouse is recorded as immobile when floating motionless or making only those movements necessary to keep its head above water.

[7] = Rat hepatic microsomal glutathione trapping assay; type: in vitro ADME; conditions: hepatic microsomal homogenate, glutathione as nucleophile
From the text: Assuming that reactive metabolites may play a role in clinical IDRs, minimizing the potential for oxidative bioactivation has been proposed as a means of improving the overall safety profile of compounds containing structural features associated with such reactivity. (see Baillie, Thomas A., Approaches to the Assessment of Stable and Chemically Reactive Drug Metabolites in Early Clinical Trials, Chemical Research in Toxicology, vol 22(2) 2009.) To this end, representative compounds of the present invention and related compounds are screened using a rat hepatic microsomal trapping assay, using glutathione as an endogenous nucleophile, to understand the potential for oxidative bioactivation of the thienyl moiety. […] Of the compounds tested, those wherein R^2a and R^2b are fluoro are found to not show glutathione conjugate formation.

[8] = wild type mice, oral gavage 30 min. prior to food, food intake 1 hr

T1 sequence (P35370 whole entry): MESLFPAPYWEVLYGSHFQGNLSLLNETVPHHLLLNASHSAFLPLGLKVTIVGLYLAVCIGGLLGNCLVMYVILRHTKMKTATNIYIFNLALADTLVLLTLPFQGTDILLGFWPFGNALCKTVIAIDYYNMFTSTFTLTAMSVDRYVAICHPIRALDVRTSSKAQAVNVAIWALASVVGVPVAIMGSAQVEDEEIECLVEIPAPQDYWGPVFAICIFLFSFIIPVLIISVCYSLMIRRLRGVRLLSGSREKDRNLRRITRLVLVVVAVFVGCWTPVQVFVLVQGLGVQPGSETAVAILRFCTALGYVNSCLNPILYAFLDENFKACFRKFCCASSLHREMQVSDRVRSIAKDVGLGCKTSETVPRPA
T3 sequence (P41146 whole entry): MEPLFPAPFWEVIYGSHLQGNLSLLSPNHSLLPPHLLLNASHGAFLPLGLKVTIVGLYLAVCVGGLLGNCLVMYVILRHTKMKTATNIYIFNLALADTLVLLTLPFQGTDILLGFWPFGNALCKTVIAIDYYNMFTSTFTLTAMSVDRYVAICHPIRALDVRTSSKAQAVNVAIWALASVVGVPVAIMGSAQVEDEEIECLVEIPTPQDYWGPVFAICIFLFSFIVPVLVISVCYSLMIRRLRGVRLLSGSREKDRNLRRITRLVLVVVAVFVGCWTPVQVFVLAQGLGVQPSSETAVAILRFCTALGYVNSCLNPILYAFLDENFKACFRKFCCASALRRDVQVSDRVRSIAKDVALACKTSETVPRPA
T2 sequence (P41146 whole entry): as above
human ERG (hERG) K+ channel, sequence (Q12809 whole entry): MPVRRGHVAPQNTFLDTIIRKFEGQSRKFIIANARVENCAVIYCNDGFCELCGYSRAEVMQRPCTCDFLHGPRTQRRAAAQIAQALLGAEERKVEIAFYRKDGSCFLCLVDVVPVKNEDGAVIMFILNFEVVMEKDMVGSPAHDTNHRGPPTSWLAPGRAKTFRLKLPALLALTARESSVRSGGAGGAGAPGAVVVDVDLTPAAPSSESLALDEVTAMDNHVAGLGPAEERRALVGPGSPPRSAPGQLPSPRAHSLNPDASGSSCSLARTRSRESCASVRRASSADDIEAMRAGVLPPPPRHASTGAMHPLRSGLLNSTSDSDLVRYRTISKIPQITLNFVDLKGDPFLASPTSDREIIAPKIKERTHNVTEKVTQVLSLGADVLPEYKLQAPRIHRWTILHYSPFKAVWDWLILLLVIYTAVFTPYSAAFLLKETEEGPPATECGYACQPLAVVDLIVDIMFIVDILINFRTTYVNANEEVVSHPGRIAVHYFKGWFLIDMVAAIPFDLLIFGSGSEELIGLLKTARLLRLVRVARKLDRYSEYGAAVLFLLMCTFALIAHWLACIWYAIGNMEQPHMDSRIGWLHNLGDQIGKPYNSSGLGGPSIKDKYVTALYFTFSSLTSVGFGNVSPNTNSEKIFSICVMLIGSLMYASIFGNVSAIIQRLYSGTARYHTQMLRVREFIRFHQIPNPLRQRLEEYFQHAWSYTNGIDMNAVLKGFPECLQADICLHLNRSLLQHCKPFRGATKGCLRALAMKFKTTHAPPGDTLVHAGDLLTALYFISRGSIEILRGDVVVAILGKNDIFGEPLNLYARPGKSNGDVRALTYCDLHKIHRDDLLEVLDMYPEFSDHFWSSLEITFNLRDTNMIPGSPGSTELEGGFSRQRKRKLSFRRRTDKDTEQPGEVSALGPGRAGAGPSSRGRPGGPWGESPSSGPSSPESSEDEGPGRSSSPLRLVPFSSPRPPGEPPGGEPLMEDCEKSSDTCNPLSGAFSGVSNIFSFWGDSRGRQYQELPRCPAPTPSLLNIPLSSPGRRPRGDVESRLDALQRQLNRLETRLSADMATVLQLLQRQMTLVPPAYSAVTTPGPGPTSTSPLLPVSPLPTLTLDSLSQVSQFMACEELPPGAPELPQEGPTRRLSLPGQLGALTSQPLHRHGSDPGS
Mu Opioid, sequence (P35372 whole entry): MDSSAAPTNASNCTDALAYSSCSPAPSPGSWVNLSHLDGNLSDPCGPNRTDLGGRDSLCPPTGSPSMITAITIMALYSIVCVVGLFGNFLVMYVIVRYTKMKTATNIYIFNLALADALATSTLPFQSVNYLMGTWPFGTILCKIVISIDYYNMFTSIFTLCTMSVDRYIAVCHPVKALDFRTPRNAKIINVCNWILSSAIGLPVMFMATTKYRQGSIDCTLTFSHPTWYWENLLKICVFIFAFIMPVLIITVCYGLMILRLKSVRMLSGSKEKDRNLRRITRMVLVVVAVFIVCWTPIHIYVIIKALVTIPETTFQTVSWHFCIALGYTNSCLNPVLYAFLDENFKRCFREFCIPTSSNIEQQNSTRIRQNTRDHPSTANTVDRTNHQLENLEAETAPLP
Delta Opioid, sequence (P41143 whole entry): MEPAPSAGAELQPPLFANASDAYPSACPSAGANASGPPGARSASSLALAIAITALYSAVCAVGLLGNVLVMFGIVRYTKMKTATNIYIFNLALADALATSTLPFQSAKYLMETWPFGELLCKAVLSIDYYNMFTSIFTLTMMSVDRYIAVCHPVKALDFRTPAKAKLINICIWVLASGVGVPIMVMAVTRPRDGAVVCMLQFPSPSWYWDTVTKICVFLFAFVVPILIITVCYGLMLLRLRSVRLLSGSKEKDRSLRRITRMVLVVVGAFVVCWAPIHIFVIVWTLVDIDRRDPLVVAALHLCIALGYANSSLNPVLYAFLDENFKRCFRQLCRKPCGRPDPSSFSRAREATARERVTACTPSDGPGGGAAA
Kappa Opioid, sequence (P41145 whole entry): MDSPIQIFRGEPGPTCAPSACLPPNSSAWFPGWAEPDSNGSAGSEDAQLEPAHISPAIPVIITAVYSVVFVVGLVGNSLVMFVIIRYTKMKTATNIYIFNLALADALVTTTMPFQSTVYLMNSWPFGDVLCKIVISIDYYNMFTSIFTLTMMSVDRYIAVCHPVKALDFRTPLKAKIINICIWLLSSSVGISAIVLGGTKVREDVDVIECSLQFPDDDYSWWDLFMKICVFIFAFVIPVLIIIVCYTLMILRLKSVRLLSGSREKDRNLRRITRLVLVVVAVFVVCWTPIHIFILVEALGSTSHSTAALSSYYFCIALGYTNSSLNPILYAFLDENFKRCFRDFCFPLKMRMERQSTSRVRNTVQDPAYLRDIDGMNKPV

Q: With `Cc1nn(-c2c(F)cccc2CO)cc1CN1CCC2(CC1)OCC(F)(F)c1cc(Cl)sc12.O=C(O)C(O)C(O)C(=O)O` [Example 1, [2-[4-[(2-Chloro-4,4-difluoro-spiro[5H-thieno[2,3-c]pyran-7,4′-piperidine]-1′-yl)methyl]-3-methyl-pyrazol-1-yl]-3-fluoro-phenyl]methanol (L)-Tartrate] as the compound, how does the fasting-induced hyperphagia [1, 8] read?
A: substantially block fasting-induced hyperphagia

Q: Which Ki (Kappa Opioid) does the source give for `CC(=O)c1cccc(F)c1-n1cc(CN2CCC3(CC2)OCC(F)(F)c2cc(Cl)sc23)c(C)n1` [Example 40, 1-(2-(4-((2′-Chloro-4′,4′-difluoro-4′,5′-dihydrospiro[piperidine-4,7′-thieno[2,3-c]pyran]-1-yl)methyl)-3-methyl-1H-pyrazol-1-yl)-3-fluorophenyl)ethanone] here?
A: > 430 nM

Q: And the Ki (Mu Opioid)?
A: > 451 nM

Q: What about the Ki (Delta Opioid) of the same compound?
A: > 479 nM

Q: What about the receptor occupancy at 3 mg/kg [2] of the same compound?
A: 70%

Q: And the Ki [3]?
A: 1080 nM

Q: What about the Kb [4] of the same compound?
A: 0.3 nM

Q: What about the Ki [5] of the same compound?
A: 0.25 nM

Q: And the “maximum effect, reduction in immobilization time” value ([6]; mFST)?
A: 50%

Q: And the ED60 ([6]; mFST, immobility time)?
A: 23 nM

Q: And the fasting-induced hyperphagia [1, 8]?
A: substantially block fasting-induced hyperphagia

Q: Which Glutathione conjugate formation [7] does the source give for `Cc1nn(-c2c(F)cccc2C(N)=O)cc1CN1CCC2(CC1)OCCc1c2sc(F)c1F.O=C(O)C(O)C(O)C(=O)O` [3-fluoro-2-[4-[(2,3-difluorospiro[4,5-dihydrothieno[2,3-c]pyran-7,4′-piperidine]-1′-yl)methyl]-3-methyl-pyrazol-1-yl]benzamide (L) Tartrate, reference compound] here?
A: Yes

Q: What does the source list for `Cc1nn(-c2c(F)cccc2-n2ccnc2C)cc1CN1CCC2(CC1)OCC(F)(F)c1cc(Cl)sc12.O=C(O)C(O)C(O)C(=O)O` [Example 47, 2-Chloro-4,4-difluoro-1′-[[1-[2-fluoro-6-(2-methylimidazol-1-yl)phenyl]-3-methyl-pyrazol-4-yl]methyl]spiro[5H-thieno[2,3-c]pyran-7,4′-piperidine] (L)-Tartrate]?
A: receptor occupancy at 3 mg/kg [2]: 84%; Kb [4]: 0.15 nM; Ki [5]: 0.26 nM; fasting-induced hyperphagia [1, 8]: substantially block fasting-induced hyperphagia

Q: Which fasting-induced hyperphagia ([1]; ORL-1 knockout mouse strain) does the source give for `Clc1cccc(N2CCNCC2)c1` [mCPP, meta-chlorophenylpiperazine, reference compound] here?
A: significantly reduce fasting induced hyperphagia

Q: And the fasting-induced hyperphagia [1, 8]?
A: significantly reduce fasting induced hyperphagia

Q: With `Cc1nn(-c2c(F)cccc2C(N)=O)cc1CN1CCC2(CC1)OCC(F)(F)c1cc(F)sc12.O=C(O)C(O)C(O)C(=O)O` [Example 18, 3-fluoro-2-[3-methyl-4-[(2,4,4-trifluorospiro[5H-thieno[2,3-c]pyran-7,4′-piperidine]-1′-yl)methyl]pyrazol-1-yl]benzamide (L)-Tartrate] as the compound, how does the Glutathione conjugate formation [7] read?
A: No

Q: For `Cc1nn(-c2c(F)cccc2C(N)=O)cc1CN1CCC2(CC1)OCCc1cc(F)sc12.O=C(O)C(O)C(O)C(=O)O` [Example 9, 3-fluoro-2-[4-[(2-fluorospiro[4,5-dihydrothieno[2,3-c]pyran-7,4′-piperidine]-1′-yl)methyl]-3-methyl-pyrazol-1-yl]benzamide (L)-Tartrate], which Glutathione conjugate formation [7] is on record?
A: Yes

Q: With `CN(C)CCCN1c2ccccc2CCc2ccccc21` [imiprimine, reference compound] as the compound, how does the immobilization time ([6]; ORL-1 knockout mice) read?
A: reduce immobilization times

Q: And the immobilization time ([6]; wild type mice)?
A: reduce immobilization times

Q: With `Cc1cccc2c1CC[C@@H](CN1CCC(c3c(Cl)cccc3Cl)CC1)C[C@H]2O` [SB612111, (−)-cis-1-methyl-7-[[4-(2,6-dichlorophenyl)piperidin-1-yl]methyl]-6,7,8,9-tetrahydro-5H-benzocyclohepten-5-ol, reference compound] as the compound, how does the receptor occupancy at 30 mg/kg ([2]; iv, intravenously 30 mg/kg 1 hr. prior to RO Tracer, positive control) read?
A: ~100%
